Laboratory results taken from PubChem BioAssay AID1963864 (Molecular Pharmacology Branch, DTP, NCI, 2024).

System: KRAS PDC multicell spheroid viability
Test: Anticancer human tumor 521955-158-R6-J3-PDC patient-derived pancreatic carcinoma cell line growth inhibition [KRAS2]
Details: for IC50: curve of first compound; for viability, T/C: stronger effect = lower value
Outline: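 KRAS-mutant tumor cells were grown as spheroids with HUVEC endothelial cells and human MSCs as stroma. Targeted agents were tested alone and with KRAS pathway inhibitors. Doses started at or near clinical Cmax, or 10 microM, descending half-log.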

[1] = second compound 0.1 µM, first compound 0.0001 µM
[2] = second compound 0.1 µM, first compound 0.000316 µM
[3] = second compound 0.1 µM, first compound 0.001 µM
[4] = second compound 0.1 µM, first compound 0.00316 µM
[5] = second compound 0.1 µM, first compound 0.01 µM
[6] = second compound 0.1 µM, first compound 0.0316 µM
[7] = second compound 0.316 µM, first compound 0.0001 µM
[8] = second compound 0.316 µM, first compound 0.000316 µM
[9] = second compound 0.316 µM, first compound 0.001 µM
[10] = second compound 0.316 µM, first compound 0.00316 µM
[11] = second compound 0.316 µM, first compound 0.01 µM
[12] = second compound 0.316 µM, first compound 0.0316 µM
[13] = second compound 1 µM, first compound 0.0001 µM
[14] = second compound 1 µM, first compound 0.000316 µM
[15] = second compound 1 µM, first compound 0.001 µM
[16] = second compound 1 µM, first compound 0.00316 µM
[17] = second compound 1 µM, first compound 0.01 µM
[18] = second compound 1 µM, first compound 0.0316 µM
[19] = second compound 3.16 µM, first compound 0.0001 µM
[20] = second compound 3.16 µM, first compound 0.000316 µM
[21] = second compound 3.16 µM, first compound 0.001 µM
[22] = second compound 3.16 µM, first compound 0.00316 µM
[23] = second compound 3.16 µM, first compound 0.01 µM
[24] = second compound 3.16 µM, first compound 0.0316 µM
[25] = second compound 10 µM, first compound 0.0001 µM
[26] = second compound 10 µM, first compound 0.000316 µM
[27] = second compound 10 µM, first compound 0.001 µM
[28] = second compound 10 µM, first compound 0.00316 µM
[29] = second compound 10 µM, first compound 0.01 µM
[30] = second compound 10 µM, first compound 0.0316 µM
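Note: drug exposure lasted seven days.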
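Throughout, for viability, T/C: 100% = DMSO vehicle wells and lower means fewer viable cells.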

Compound | IC50 (second compound 0.1 µM) | IC50 (second compound 0.316 µM) | IC50 (second compound 1 µM) | IC50 (second compound 3.16 µM) | IC50 (second compound 10 µM) | viability, T/C [1] | viability, T/C [2] | viability, T/C [3] | viability, T/C [4] | viability, T/C [5] | viability, T/C [6] | viability, T/C [7] | viability, T/C [8] | viability, T/C [9] | viability, T/C [10] | viability, T/C [11] | viability, T/C [12] | viability, T/C [13] | viability, T/C [14] | viability, T/C [15] | other results
CC(=O)Nc1cccc(-n2c(=O)n(C3CC3)c(=O)c3c(Nc4ccc(I)cc4F)n(C)c(=O)c(C)c32)c1 + CNCc1ccccc1-c1csc(C(C)Nc2nc(C)nc3cc(OC)c(OC)cc23)c1 | 16.7 nM | 15.1 nM | 4.73 nM | < 0.1 nM | < 0.1 nM | 84.3% | 83.3% | 88.9% | 75% | 60.7% | 37.4% | 70.3% | 90.2% | 80.8% | 72.4% | 60% | 33.2% | 69.1% | 76.6% | 65.9% | viability, T/C [16]: 58.4%; viability, T/C [17]: 35.3%; viability, T/C [18]: 12.3%; viability, T/C [19]: 1.97%; viability, T/C [20]: 0.17%; viability, T/C [21]: 7.16%; viability, T/C [22]: 2.18%; viability, T/C [23]: 8.31%; viability, T/C [24]: 1.89%; viability, T/C [25]: 2.4%; viability, T/C [26]: 1.9%; viability, T/C [27]: 0.16%; viability, T/C [28]: 0.16%; viability, T/C [29]: 4.06%; viability, T/C [30]: 0.45%
CC(=O)Nc1cccc(-n2c(=O)n(C3CC3)c(=O)c3c(Nc4ccc(I)cc4F)n(C)c(=O)c(C)c32)c1 + C=CC(=O)N1CCN(c2nc(=O)n(-c3c(C)ccnc3C(C)C)c3nc(-c4c(O)cccc4F)c(F)cc23)C(C)C1 | 25.5 nM | > 31.6 nM | > 31.6 nM | > 31.6 nM | 8.58 nM | 97.7% | 96.3% | 92% | 88.1% | 69.1% | 45.2% | 107% | 99.1% | 95.4% | 83.7% | 72.8% | 50.5% | 102% | 99.9% | 98.5% | viability, T/C [16]: 88.1%; viability, T/C [17]: 83.4%; viability, T/C [18]: 51%; viability, T/C [19]: 84.4%; viability, T/C [20]: 92.2%; viability, T/C [21]: 91.9%; viability, T/C [22]: 90.7%; viability, T/C [23]: 71.6%; viability, T/C [24]: 52.2%; viability, T/C [25]: 64.4%; viability, T/C [26]: 69.8%; viability, T/C [27]: 58.4%; viability, T/C [28]: 58.4%; viability, T/C [29]: 46.3%; viability, T/C [30]: 41%
